Source: US11697648B2, “Fused pyrimidine pyridinone compounds as JAK inhibitors” (THERAVANCE BIOPHARMA R&D IP, LLC, priority 2019, dated 2023)

Experiments:
[1] = test system: IL-2 stimulated STAT5 phosphorylation in Tall-1 human T cell line (JAK3); test: Cellular JAK3 potency assay: inhibition of IL-2 stimulated pSTAT5 in Tall-1 T cells; type: cell-based; conditions: IL-2 stimulated pSTAT5, Tall-1 T cells
Procedure, shortened: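 Tall-1 cells, 45,000 per well, preincubated 1 hour with compound at 37 °C, then stimulated 30 minutes with IL-2 at 300 ng/ml final. pSTAT5 (Tyr694/699) in lysates quantified by AlphaLISA SureFire Ultra. pIC50 derived from inhibition curves, given as mean with SD.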

JAK3 = JAK3 (Homo sapiens (Human), UniProt P52333); test: Biochemical JAK3 kinase assay (LanthaScreen); conditions: for JAK3 (pKi)-JAK1 (pKi): selectivity JAK3 over JAK1, difference of pKi
Procedure, shortened: (§1)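 GST-JAK + GFP-STAT1 peptide, HEPES pH 7.5/MgCl2/EGTA/Brij-35 buffer; cpd preincubation 1 h RT; ATP start, 1 h RT; stop with 10 mM EDTA + 2 nM Tb-anti-pSTAT1; TR-FRET 520/495. 4-parameter IC50 → pKi (Cheng-Prusoff).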

JAK2 = JAK2 (Homo sapiens (Human), UniProt O60674); test: Biochemical JAK2 kinase assay (LanthaScreen)
Procedure, shortened: as §1

Tyk2 = Tyk2 (Homo sapiens (Human), UniProt P29597); test: Biochemical Tyk2 kinase assay (LanthaScreen)
Procedure, shortened: as §1

JAK1 = JAK1 (Homo sapiens (Human), UniProt P23458); test: Biochemical JAK1 kinase assay (LanthaScreen)
Procedure, shortened: as §1

Sequence of JAK1 (P23458 whole entry): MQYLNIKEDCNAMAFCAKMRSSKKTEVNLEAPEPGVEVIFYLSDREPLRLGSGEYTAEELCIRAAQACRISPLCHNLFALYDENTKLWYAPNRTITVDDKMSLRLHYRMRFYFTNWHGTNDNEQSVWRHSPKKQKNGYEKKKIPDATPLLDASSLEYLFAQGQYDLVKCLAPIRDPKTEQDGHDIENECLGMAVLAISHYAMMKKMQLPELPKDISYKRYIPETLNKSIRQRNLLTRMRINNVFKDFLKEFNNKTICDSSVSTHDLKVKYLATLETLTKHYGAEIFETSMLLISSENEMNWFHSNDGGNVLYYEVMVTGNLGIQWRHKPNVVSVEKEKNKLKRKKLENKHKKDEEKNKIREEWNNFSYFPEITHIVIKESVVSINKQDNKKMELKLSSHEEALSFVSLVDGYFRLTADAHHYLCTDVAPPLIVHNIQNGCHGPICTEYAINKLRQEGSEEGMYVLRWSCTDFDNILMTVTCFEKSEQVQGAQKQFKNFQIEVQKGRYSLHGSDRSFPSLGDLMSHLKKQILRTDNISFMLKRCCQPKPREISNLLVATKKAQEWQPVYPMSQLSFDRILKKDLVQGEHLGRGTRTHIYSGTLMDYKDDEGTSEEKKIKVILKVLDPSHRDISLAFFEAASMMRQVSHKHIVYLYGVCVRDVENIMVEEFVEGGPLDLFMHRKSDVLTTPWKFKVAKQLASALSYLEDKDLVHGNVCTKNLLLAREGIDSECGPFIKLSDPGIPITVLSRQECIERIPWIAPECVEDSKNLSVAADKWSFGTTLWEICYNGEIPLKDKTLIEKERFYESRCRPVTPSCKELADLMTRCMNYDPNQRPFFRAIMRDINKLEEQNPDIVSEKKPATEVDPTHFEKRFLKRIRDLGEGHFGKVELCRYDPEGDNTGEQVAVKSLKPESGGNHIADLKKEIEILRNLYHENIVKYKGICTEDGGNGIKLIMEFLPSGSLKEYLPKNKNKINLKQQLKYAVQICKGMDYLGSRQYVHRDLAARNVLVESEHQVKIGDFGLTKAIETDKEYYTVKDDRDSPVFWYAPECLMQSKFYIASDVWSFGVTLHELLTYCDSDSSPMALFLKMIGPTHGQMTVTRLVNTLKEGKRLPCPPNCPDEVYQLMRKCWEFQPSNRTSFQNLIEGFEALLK
Sequence of Tyk2 (P29597 whole entry): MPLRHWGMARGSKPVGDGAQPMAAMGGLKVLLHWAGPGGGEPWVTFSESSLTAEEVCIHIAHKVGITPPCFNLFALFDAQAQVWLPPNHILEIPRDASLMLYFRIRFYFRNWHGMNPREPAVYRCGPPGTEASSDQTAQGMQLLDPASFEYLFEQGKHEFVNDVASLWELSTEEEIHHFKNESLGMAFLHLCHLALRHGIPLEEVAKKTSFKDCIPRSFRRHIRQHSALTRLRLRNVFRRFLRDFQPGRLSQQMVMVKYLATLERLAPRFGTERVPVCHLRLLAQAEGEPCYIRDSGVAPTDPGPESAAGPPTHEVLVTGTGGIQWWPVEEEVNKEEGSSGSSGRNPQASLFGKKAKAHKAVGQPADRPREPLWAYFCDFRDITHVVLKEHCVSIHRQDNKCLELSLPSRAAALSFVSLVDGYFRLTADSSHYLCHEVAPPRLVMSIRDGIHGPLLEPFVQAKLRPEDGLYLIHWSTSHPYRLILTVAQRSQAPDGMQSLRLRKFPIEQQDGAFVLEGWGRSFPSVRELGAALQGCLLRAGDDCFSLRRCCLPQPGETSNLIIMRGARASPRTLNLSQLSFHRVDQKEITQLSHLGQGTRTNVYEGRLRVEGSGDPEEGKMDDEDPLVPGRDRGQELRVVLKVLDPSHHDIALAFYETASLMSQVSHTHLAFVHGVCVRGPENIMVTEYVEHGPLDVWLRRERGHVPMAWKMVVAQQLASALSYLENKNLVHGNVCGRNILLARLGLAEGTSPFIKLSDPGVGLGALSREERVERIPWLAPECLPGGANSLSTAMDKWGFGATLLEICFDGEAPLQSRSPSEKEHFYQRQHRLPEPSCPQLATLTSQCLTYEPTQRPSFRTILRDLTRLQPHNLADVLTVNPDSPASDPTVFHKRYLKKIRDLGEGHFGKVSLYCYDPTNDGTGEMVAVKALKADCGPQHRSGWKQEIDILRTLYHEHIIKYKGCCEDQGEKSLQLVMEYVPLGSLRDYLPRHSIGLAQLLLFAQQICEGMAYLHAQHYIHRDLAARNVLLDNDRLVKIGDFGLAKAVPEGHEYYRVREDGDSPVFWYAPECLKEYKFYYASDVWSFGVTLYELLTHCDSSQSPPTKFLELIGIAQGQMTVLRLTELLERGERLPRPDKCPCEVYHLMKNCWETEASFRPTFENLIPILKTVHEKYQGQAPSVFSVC
Sequence of JAK3 (P52333 whole entry): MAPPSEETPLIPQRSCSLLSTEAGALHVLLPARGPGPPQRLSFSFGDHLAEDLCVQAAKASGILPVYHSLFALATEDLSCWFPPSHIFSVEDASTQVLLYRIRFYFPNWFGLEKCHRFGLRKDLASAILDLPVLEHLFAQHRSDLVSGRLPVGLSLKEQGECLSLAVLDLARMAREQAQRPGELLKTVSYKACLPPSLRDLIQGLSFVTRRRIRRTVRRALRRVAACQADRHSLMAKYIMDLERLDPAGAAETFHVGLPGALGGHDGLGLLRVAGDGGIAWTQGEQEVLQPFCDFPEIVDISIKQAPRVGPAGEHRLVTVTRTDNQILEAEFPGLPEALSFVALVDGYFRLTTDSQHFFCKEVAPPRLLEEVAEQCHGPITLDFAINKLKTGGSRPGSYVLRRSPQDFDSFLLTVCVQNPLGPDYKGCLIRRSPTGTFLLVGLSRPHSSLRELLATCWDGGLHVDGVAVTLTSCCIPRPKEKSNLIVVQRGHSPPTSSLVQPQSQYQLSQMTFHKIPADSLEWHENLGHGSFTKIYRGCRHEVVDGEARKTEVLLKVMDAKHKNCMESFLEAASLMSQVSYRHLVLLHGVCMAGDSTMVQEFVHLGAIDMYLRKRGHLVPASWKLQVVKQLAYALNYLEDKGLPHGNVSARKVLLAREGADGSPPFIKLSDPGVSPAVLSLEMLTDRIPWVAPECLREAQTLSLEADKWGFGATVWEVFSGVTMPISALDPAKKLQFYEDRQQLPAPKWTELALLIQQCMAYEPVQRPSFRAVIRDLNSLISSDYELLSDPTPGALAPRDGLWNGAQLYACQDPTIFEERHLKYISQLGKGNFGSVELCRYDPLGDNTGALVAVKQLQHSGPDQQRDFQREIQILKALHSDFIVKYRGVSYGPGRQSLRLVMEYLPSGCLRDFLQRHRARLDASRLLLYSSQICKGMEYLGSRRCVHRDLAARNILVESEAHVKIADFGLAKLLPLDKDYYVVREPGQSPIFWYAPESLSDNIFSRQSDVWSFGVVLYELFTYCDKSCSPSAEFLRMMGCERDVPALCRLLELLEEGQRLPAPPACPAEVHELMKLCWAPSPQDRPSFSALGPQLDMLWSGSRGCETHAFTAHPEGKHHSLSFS
Sequence of JAK2 (O60674 whole entry): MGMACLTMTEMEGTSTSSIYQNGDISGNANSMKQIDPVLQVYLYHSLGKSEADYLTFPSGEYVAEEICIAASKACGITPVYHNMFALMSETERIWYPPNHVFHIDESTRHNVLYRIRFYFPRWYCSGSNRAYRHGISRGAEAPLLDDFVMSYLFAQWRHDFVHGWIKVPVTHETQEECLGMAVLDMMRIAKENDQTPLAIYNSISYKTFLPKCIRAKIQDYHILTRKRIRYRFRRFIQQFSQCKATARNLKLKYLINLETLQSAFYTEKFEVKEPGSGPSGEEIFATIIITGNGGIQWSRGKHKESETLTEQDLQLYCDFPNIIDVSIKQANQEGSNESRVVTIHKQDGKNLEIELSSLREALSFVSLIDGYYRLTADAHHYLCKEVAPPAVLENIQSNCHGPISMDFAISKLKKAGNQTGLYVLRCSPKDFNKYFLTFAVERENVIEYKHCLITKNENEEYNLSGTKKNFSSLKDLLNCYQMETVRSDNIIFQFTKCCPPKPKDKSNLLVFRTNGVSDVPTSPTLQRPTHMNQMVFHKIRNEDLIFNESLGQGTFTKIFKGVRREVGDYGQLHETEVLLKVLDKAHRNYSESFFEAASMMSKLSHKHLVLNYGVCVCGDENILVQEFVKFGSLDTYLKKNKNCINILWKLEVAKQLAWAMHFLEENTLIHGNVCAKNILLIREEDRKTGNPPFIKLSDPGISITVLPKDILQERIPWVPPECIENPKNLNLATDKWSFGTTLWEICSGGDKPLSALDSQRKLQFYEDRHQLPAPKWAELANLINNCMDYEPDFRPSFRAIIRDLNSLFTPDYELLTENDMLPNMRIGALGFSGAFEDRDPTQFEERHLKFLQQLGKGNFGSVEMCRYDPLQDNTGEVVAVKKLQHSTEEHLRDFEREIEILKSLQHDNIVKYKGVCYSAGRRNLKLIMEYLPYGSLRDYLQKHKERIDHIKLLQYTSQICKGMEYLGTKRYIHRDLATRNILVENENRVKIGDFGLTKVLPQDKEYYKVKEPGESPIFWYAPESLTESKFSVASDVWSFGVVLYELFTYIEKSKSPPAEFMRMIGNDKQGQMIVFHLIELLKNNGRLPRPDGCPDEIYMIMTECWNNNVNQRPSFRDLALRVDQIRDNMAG

Compound	Tall-1 (pIC50) [1]	JAK 3 (pKi) (JAK3)	JAK3 (pKi)-JAK1 (pKi) (JAK3)	JAK 2 (pKi) (JAK2)	Tyk 2 (pKi) (Tyk2)	JAK 1 (pKi) (JAK1)
C=CC(=O)N1CC(CCn2c(=O)ccc3cnc(Nc4ccc(N5CCN(C(=O)C(C)(C)C)CC5)cc4)nc32)C1 [Example 104]	A (A represents a pIC50 value≥7.5 (IC50≤32 nM))	A (A represents a pKi value≥10 (Ki≤0.1 nM))	A (A represents a value of 3 or above)	E (E represents a pKi value of 7 or below (Ki of 100 nM or above))	E (E represents a pKi value of 7 or below (Ki of 100 nM or above))	E (E represents a pKi value of 7 or below (Ki of 100 nM or above))
C=CC(=O)N1CCN(CCn2c(=O)ccc3cnc(Nc4cnn(CCF)c4)nc32)[C@@H](C)C1 [Example 236]	B (B represents a pC50 value between 6.7 (included) and 7.5 (IC50 between 200 nM and 32 nM))	B (B represents pKi value between 9 and 10 (Ki between 1 nM and 0.1 nM))	A (A represents a value of 3 or above)	E (E represents a pKi value of 7 or below (Ki of 100 nM or above))	E (E represents a pKi value of 7 or below (Ki of 100 nM or above))	E (E represents a pKi value of 7 or below (Ki of 100 nM or above))
C=CC(=O)N1CC(CCn2c(=O)ccc3cnc(Nc4ccc(N5CCN(C(C)=O)CC5)c(F)c4)nc32)C1 [Example 181]	B (B represents a pC50 value between 6.7 (included) and 7.5 (IC50 between 200 nM and 32 nM))	B (B represents pKi value between 9 and 10 (Ki between 1 nM and 0.1 nM))	A (A represents a value of 3 or above)	E (E represents a pKi value of 7 or below (Ki of 100 nM or above))	E (E represents a pKi value of 7 or below (Ki of 100 nM or above))	E (E represents a pKi value of 7 or below (Ki of 100 nM or above))
C=CC(=O)N1CC(CCn2c(=O)ccc3cnc(Nc4cccc(CN5CCN(S(=O)(=O)C6COC6)CC5)c4)nc32)C1 [Example 126]	B (B represents a pC50 value between 6.7 (included) and 7.5 (IC50 between 200 nM and 32 nM))	A (A represents a pKi value≥10 (Ki≤0.1 nM))	A (A represents a value of 3 or above)	E (E represents a pKi value of 7 or below (Ki of 100 nM or above))	E (E represents a pKi value of 7 or below (Ki of 100 nM or above))	E (E represents a pKi value of 7 or below (Ki of 100 nM or above))
C=CC(=O)N1CC(CCn2c(=O)ccc3cnc(Nc4ccc(N5CCN(C)CC5)c(F)c4)nc32)C1 [Example 48]	B (B represents a pC50 value between 6.7 (included) and 7.5 (IC50 between 200 nM and 32 nM))	B (B represents pKi value between 9 and 10 (Ki between 1 nM and 0.1 nM))	A (A represents a value of 3 or above)	E (E represents a pKi value of 7 or below (Ki of 100 nM or above))	E (E represents a pKi value of 7 or below (Ki of 100 nM or above))	E (E represents a pKi value of 7 or below (Ki of 100 nM or above))
C=CC(=O)N1CC(CCn2c(=O)ccc3cnc(Nc4ccc(-n5ccnc5)cc4)nc32)C1 [Example 73]	C (C represents a pIC50 value between 6 and 6.7 (IC50 between 1 μM and 200 nM))	C (C represents a pKi value between 8 and 9 (Ki between 10 nM and 1 nM))	B (B represents a value of 2.5 to 3)	E (E represents a pKi value of 7 or below (Ki of 100 nM or above))	E (E represents a pKi value of 7 or below (Ki of 100 nM or above))	E (E represents a pKi value of 7 or below (Ki of 100 nM or above))
C=CC(=O)N1CCN(CCn2c(=O)ccc3cnc(Nc4ccc(N5CCN(S(=O)(=O)CCOC)CC5)cc4)nc32)CC1 [Example 147]	C (C represents a pIC50 value between 6 and 6.7 (IC50 between 1 μM and 200 nM))	B (B represents pKi value between 9 and 10 (Ki between 1 nM and 0.1 nM))	A (A represents a value of 3 or above)	E (E represents a pKi value of 7 or below (Ki of 100 nM or above))	E (E represents a pKi value of 7 or below (Ki of 100 nM or above))	E (E represents a pKi value of 7 or below (Ki of 100 nM or above))
C=CC(=O)N1CCN(CCn2c(=O)ccc3cnc(Nc4cnn(CC(F)F)c4)nc32)[C@@H](C)C1 [Example 232]	B (B represents a pC50 value between 6.7 (included) and 7.5 (IC50 between 200 nM and 32 nM))	A (A represents a pKi value≥10 (Ki≤0.1 nM))	A (A represents a value of 3 or above)	E (E represents a pKi value of 7 or below (Ki of 100 nM or above))	E (E represents a pKi value of 7 or below (Ki of 100 nM or above))	E (E represents a pKi value of 7 or below (Ki of 100 nM or above))
C=CC(=O)N1CC(CCn2c(=O)ccc3cnc(Nc4cccc(N5CCN(S(=O)(=O)C6COC6)CC5)c4)nc32)C1 [Example 129]	B (B represents a pC50 value between 6.7 (included) and 7.5 (IC50 between 200 nM and 32 nM))	A (A represents a pKi value≥10 (Ki≤0.1 nM))	A (A represents a value of 3 or above)	E (E represents a pKi value of 7 or below (Ki of 100 nM or above))	E (E represents a pKi value of 7 or below (Ki of 100 nM or above))	E (E represents a pKi value of 7 or below (Ki of 100 nM or above))
C=CC(=O)N1CC(CCn2c(=O)ccc3cnc(Nc4ccc(N5CCN(C)CC5)c(C#N)c4)nc32)C1 [Example 9, 5-((8-(2-(1-acryloylazetidin-3-yl)ethyl)-7-oxo-7,8-dihydropyrido[2,3-d]pyrimidin-2-yl)amino)-2-(4-methylpiperazin-1-yl)benzonitrile]	B (B represents a pC50 value between 6.7 (included) and 7.5 (IC50 between 200 nM and 32 nM))	B (B represents pKi value between 9 and 10 (Ki between 1 nM and 0.1 nM))	A (A represents a value of 3 or above)	E (E represents a pKi value of 7 or below (Ki of 100 nM or above))	E (E represents a pKi value of 7 or below (Ki of 100 nM or above))	E (E represents a pKi value of 7 or below (Ki of 100 nM or above))
